Consider 14 molecules from patent US20210403435A1, “HERBICIDAL COMPOUNDS” (SYNGENTA CROP PROTECTION AG, priority 2018, published 2021).

What all share (assay): Post-emergence efficacy, glasshouse, evaluated after 13 days
Common to all, as to type: in vivo

Assay [1] has as its system Chenopodium album (CHEAL). The conditions noted are these: post-emergence application, 500 g/Ha, evaluated after 13 days; for pest or weed control at 500 g/ha: Chenopodium album, 312 h, read-out: Control of weed species CHEAL (100=total damage to plant; 0=no damage to plant). The procedure, abridged: (§1)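 Foliar application to young plants (14 d post-sowing) in standard soil. Growth conditions before and after: 24/16 °C, 14 h light, 65% humidity. Percent damage read at 13 days after treatment.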

Assay [2] deals with Digitaria sanguinalis (DIGSA). The conditions noted are these: post-emergence application, 500 g/Ha, evaluated after 13 days; for pest or weed control at 500 g/ha: Digitaria sanguinalis, 312 h, read-out: Control of weed species DIGSA (100=total damage to plant; 0=no damage to plant). The procedure, abridged:
as §1

A further assay deals with Setaria faberi (SETFA). The settings on record: post-emergence application, 500 g/Ha, evaluated after 13 days; for pest or weed control at 500 g/ha: Setaria faberi, 312 h, read-out: Control of weed species SETFA (100=total damage to plant; 0=no damage to plant). The procedure, abridged: as §1
Assay [3] relates to Echinochloa crus-galli (ECHCG). The settings on record: post-emergence application, 500 g/Ha, evaluated after 13 days; for pest or weed control at 500 g/ha: Echinochloa crus-galli, 312 h, read-out: Control of weed species ECHCG (100=total damage to plant; 0=no damage to plant). The procedure, abridged:
as §1

Assay [4] relates to Ipomoea hederacea (IPOHE). The conditions noted are these: post-emergence application, 500 g/Ha, evaluated after 13 days; for pest or weed control at 500 g/ha: Ipomoea hederacea, 312 h, read-out: Control of weed species IPOHE (100=total damage to plant; 0=no damage to plant). Summed up:
as §1

In a further assay the test system is Lolium perenne (LOLPE). The settings on record: post-emergence application, 500 g/Ha, evaluated after 13 days; for pest or weed control at 500 g/ha: Lolium perenne, 312 h, read-out: Control of weed species LOLPE (100=total damage to plant; 0=no damage to plant). The procedure, abridged: as §1
The next assay concerns Eleusine indica (ELEIN). The conditions noted are these: post-emergence application, 500 g/Ha, evaluated after 13 days; for pest or weed control at 500 g/ha: Eleusine indica, 312 h, read-out: Control of weed species ELEIN (100=total damage to plant; 0=no damage to plant). Summed up: as §1
The subject of assay [5] is Amaranthus palmeri (AMAPA). The conditions noted are these: post-emergence application, 500 g/Ha, evaluated after 13 days; for pest or weed control at 500 g/ha: Amaranthus palmeri, 312 h, read-out: Control of weed species AMAPA (100=total damage to plant; 0=no damage to plant). Summed up: as §1
Assay [6] relates to Euphorbia heterophylla (EPHHL). The conditions noted are these: post-emergence application, 500 g/Ha, evaluated after 13 days; for pest or weed control at 500 g/ha: Euphorbia heterophylla, 312 h, read-out: Control of weed species EPHHL (100=total damage to plant; 0=no damage to plant). The procedure, abridged: as §1

As for `O=C(NCC(F)(F)F)c1cc[n+](CCS(=O)(=O)[O-])nc1` [Compound A36], the pest or weed control at 500 g/ha in assay [1] is 90%; in [2], 60%; with Setaria faberi (SETFA), 60%; in assay [3], 30%; in assay [4], 40%; in the assay with Lolium perenne (LOLPE), 20%. The pest or weed control at 500 g/ha with Eleusine indica (ELEIN) came to 60%; in [5] it was 100%; in assay [6], 50%.

For `CN(NC(=O)c1cc[n+](CCC(=O)O)nc1)C(=O)OC(C)(C)C.O=C([O-])C(F)(F)F` [Compound A72], in assay [1], the “Control of weed species CHEAL (100=total damage to plant; 0=no damage to plant)” value was found to be 20. For the same molecule, the “Control of weed species DIGSA (100=total damage to plant; 0=no damage to plant)” value in assay [2] is 40. In the assay on Setaria faberi (SETFA), the “Control of weed species SETFA (100=total damage to plant; 0=no damage to plant)” value was determined as 20. For the same molecule, the “Control of weed species ECHCG (100=total damage to plant; 0=no damage to plant)” value in [3] amounted to 20. The “Control of weed species IPOHE (100=total damage to plant; 0=no damage to plant)” value in assay [4] stood at 20. In addition, the “Control of weed species LOLPE (100=total damage to plant; 0=no damage to plant)” value in the assay with Lolium perenne (LOLPE) was determined as 20. For the same molecule, the “Control of weed species ELEIN (100=total damage to plant; 0=no damage to plant)” value with Eleusine indica (ELEIN) is reported as 30. Moreover, the “Control of weed species AMAPA (100=total damage to plant; 0=no damage to plant)” value in assay [5] is 100. Also, in [6], the “Control of weed species EPHHL (100=total damage to plant; 0=no damage to plant)” value is 20.

With `CCCNC(=O)c1cc[n+](CCS(=O)(=O)[O-])nc1` [Compound A51], the pest or weed control at 500 g/ha in assay [1] was determined as 70%; in [2] it was 90%; in the assay with Setaria faberi (SETFA), 60%; in assay [3] it was 60%; in [4], 60%; in the assay with Lolium perenne (LOLPE), 20%. The pest or weed control at 500 g/ha in the assay with Eleusine indica (ELEIN) is 20%; in assay [5], 50%; in assay [6], 60%.

On to `O=C(O)CC[n+]1ccc(C(=O)NCCc2nccs2)cn1` [Compound A143], for which the pest or weed control at 500 g/ha in assay [1] was determined as 90%; in assay [2] it was 60%; in the assay with Setaria faberi (SETFA), 80%; in [3], 40%; in [4], 40%; with Lolium perenne (LOLPE), 50%. Moreover, the pest or weed control at 500 g/ha with Eleusine indica (ELEIN) amounted to 100%; in [5], 100%; in [6], 50%.

For `CN(CC#N)C(=O)c1cc[n+](CCC(=O)O)nc1` [Compound A107], the pest or weed control at 500 g/ha in assay [1] was found to be 20%; in assay [2], 40%; with Setaria faberi (SETFA), 60%; in assay [3], 60%; in assay [4], 20%; with Lolium perenne (LOLPE) it was 0%. Also, the pest or weed control at 500 g/ha with Eleusine indica (ELEIN) was found to be 20%; in assay [5], 100%; in [6], 100%.

`O=C(O)CC[n+]1ccc(C(=O)NCc2ccccn2)cn1` [Compound A115]: the pest or weed control at 500 g/ha worked out at 70% in assay [1]; 70% in assay [2]; 70% in the assay with Setaria faberi (SETFA); 70% in assay [3]; 20% in [4]; 70% in the assay on Lolium perenne (LOLPE). In addition, the pest or weed control at 500 g/ha was found to be 100% with Eleusine indica (ELEIN), 100% in [5] and 70% in [6].

Turning to `CNC(=O)c1cc[n+](CCCS(=O)(=O)[O-])nc1` [Compound A11], the pest or weed control at 500 g/ha in [1] worked out at 80%; in assay [2], 70%; in the assay with Setaria faberi (SETFA) it was 20%; in assay [3] it was 70%; in assay [4] it was 30%; in the assay on Lolium perenne (LOLPE), 30%. Besides, the pest or weed control at 500 g/ha in the assay with Eleusine indica (ELEIN) stood at 10%; in assay [5], 40%; in assay [6], 70%.

For `CCNC(=O)c1cc[n+](CCNS(=O)(=O)[O-])nc1` [Compound A81], the pest or weed control at 500 g/ha is 100% in assay [1]; 90% in [2]; 100% in the assay with Setaria faberi (SETFA); 100% in [3]; 90% in [4]; 90% in the assay on Lolium perenne (LOLPE). The pest or weed control at 500 g/ha (in the assay with Eleusine indica (ELEIN); in assay [5]; in assay [6]) was 100% in each case.

On to `O=C(O)CC[n+]1ccc(C(=O)NCc2ccc(F)cc2)cn1` [Compound A22], for which the pest or weed control at 500 g/ha is 90% in assay [1]; 60% in assay [2]; 50% in the assay with Setaria faberi (SETFA); 50% in [3]; 40% in assay [4]; 40% with Lolium perenne (LOLPE). Also, the pest or weed control at 500 g/ha in the assay on Eleusine indica (ELEIN) came out at 60%; in assay [5], 100%; in assay [6] it was 90%.

Take `O=C(O)CC[n+]1ccc(C(=O)NCC2CC2)cn1` [Compound A65]: the pest or weed control at 500 g/ha in assay [1] stood at 90%; in assay [2], 100%; with Setaria faberi (SETFA), 100%; in [3], 50%; in assay [4], 20%; in the assay with Lolium perenne (LOLPE), 50%. Also, the pest or weed control at 500 g/ha in the assay on Eleusine indica (ELEIN) is 90%; in [5], 90%; in assay [6] it was 100%.

Regarding `C=CCNC(=O)c1cc[n+](CCCOS(=O)(=O)[O-])nc1` [Compound A125], the pest or weed control at 500 g/ha in [1] is 60%; in assay [2], 60%; in the assay with Setaria faberi (SETFA), 50%; in [3], 70%; in [4], 50%; in the assay on Lolium perenne (LOLPE), 60%. Moreover, the pest or weed control at 500 g/ha in the assay on Eleusine indica (ELEIN) was determined as 30%; in assay [5], 30%; in assay [6] it was 60%.

As for `CC#CCNC(=O)c1cc[n+](CCC(=O)O)nc1` [Compound A86], the pest or weed control at 500 g/ha in [1] was found to be 90%; in assay [2] it was 100%; in the assay with Setaria faberi (SETFA), 100%; in [3], 100%; in assay [4], 20%; in the assay on Lolium perenne (LOLPE) it was 60%. Moreover, the pest or weed control at 500 g/ha with Eleusine indica (ELEIN) came out at 90%; in assay [5], 100%; in assay [6] it was 100%.

For `COCCNC(=O)c1cc[n+](CCC(=O)O)nc1` [Compound A40], the pest or weed control at 500 g/ha in assay [1] was 90%; in assay [2] it was 100%; in the assay with Setaria faberi (SETFA), 100%; in assay [3], 90%; in assay [4], 60%; in the assay with Lolium perenne (LOLPE) it was 70%. Moreover, the pest or weed control at 500 g/ha (in the assay with Eleusine indica (ELEIN); in assay [5]; in assay [6]) was 100% each time.

On to `C=CCNC(=O)c1cc[n+](CCC(=O)O)nc1` [Compound A19], for which the pest or weed control at 500 g/ha came out at 90% in assay [1]; 100% in assay [2]; 80% with Setaria faberi (SETFA); 80% in assay [3]; 70% in assay [4]; 80% in the assay on Lolium perenne (LOLPE). Also, the figures for the pest or weed control at 500 g/ha (in the assay with Eleusine indica (ELEIN); in assay [5]; in [6]) were 90%, 100% and 90%, respectively.
